The values below come from ChEMBL document CHEMBL5390243, “Catecholamine Derivatives: Natural Occurrence, Structural Diversity, and Biological Activity” (J Nat Prod, 2023).

As a reminder, the pIC50 is the IC50 on a negative log10 scale, so that one unit is a factor of ten. Broadly, the pEC50 is the negative decadic logarithm of the EC50, by convention in mol/L. What is called inhibition is the relative decrease from the control value, in per cent. For orientation: EC50 means the concentration giving half of the maximal effect. Usually MIC stands for the smallest concentration in the dilution series that meets the test's criterion for growth inhibition.

Experiment [1] concerns the target Peroxisome proliferator-activated receptor alpha (Homo sapiens) (UniProt Q07869). Put plainly: Activation of PPARalpha (unknown origin) expressed in human HepG2 cells assessed as fold change at 1.47 ug/ml incubated for 24 hrs by luciferase assay. It counts as cell-based. The settings on record: filed as activator, dose 1.47 µg/ml.
The test system of experiment [2] is RAW264.7. Kind of experiment: Anti-inflammatory activity against mouse RAW264.7 cells assessed as inhibition of LPS-induced NO production at 25 uM. Set-up: scale not given: the % may be the effect or the level left. The class given is functional.
A further experiment has as its system HeLa. Kind of experiment: Cytotoxicity against human HeLa cells assessed as reduction in cell viability measured after 24 hrs by MTT assay. It counts as functional, cell-based.
Experiment [3] can be described thus: Antioxidant activity assessed as DPPH radical scavenging activity measured after 30 mins by spectrophotometric analysis. It counts as functional. For orientation: The DPPH test is a chemical assay of radical scavenging.
The target in experiment [4] is Beta-1 adrenergic receptor (Homo sapiens) (UniProt P08588). Put plainly: Agonist activity at ARbeta1 (unknown origin) expressed in CHO-K1 cells co-expressing G alpha 15 assessed as inhibition of isoproterenol induced calcium response upto 100 uM incubated for 10 mins by calcium mobilization assay relative to control. The class given is functional, cell-based. The settings on record: filed as agonist.
Chain of Beta-1 adrenergic receptor (Homo sapiens) (P08588 whole entry, looked up): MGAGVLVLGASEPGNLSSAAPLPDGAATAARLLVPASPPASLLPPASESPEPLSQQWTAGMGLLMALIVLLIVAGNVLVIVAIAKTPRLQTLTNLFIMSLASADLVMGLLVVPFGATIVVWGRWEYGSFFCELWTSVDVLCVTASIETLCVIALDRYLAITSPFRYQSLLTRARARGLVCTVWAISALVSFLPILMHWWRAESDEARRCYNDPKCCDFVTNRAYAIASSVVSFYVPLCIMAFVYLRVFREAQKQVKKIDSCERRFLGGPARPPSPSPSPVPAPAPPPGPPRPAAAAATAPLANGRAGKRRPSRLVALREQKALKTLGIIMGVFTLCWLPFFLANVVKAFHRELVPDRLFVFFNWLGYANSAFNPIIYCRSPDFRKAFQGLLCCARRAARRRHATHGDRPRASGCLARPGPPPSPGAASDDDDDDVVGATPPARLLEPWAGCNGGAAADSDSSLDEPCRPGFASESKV

Experiment [5] has as its target Alpha-1A adrenergic receptor (Homo sapiens) (UniProt P35348). Kind of experiment: Antagonist activity at ARalpha1A (unknown origin) expressed in HEK293 cells co-expressing Galpha16 assessed as inhibition of Phenylephrine induced calcium response upto 100 uM incubated for 10 mins by calcium mobilization assay. It counts as functional, cell-based. A general note: Calcium assays in cells follow changes in intracellular calcium, usually with a dye or a luminescent sensor.

Experiment [6] relates to RAW264.7. Kind of experiment: Anti-inflammatory activity against mouse RAW264.7 cells assessed as inhibition of LPS-induced nitric oxide production at 50 uM preincubated for 2 hrs with compound followed by LPS-stimulation and measured after 24 hrs by Griess reagent based analysis. The class given is functional, cell-based. (In general: Nitrite, measured by Griess reagent, commonly stands in for NO production.)

A short description of experiment [7]: Antioxidant activity assessed as DPPH radical scavenging activity measured for 45 mins by spectrophotometric analysis. It counts as functional.
In another experiment the test system is Leishmania amazonensis. Kind of experiment: Antileishmanial activity against Leishmania amazonensis amastigotes assessed as inhibition of parasitic growth. The class given is functional, organism-based.
The subject of a further experiment is Trypanosoma cruzi. Put plainly: Antitrypanosomal activity against Trypanosoma cruzi trypomastigotes infected in Swiss albino mouse assessed a s reduction in parasitic growth and measured after 24 hrs. The class given is functional, organism-based.
The target in experiment [8] is T1, Prostaglandin G/H synthase 2 (Homo sapiens, UniProt P35354).
T1 sequence (P35354 whole entry): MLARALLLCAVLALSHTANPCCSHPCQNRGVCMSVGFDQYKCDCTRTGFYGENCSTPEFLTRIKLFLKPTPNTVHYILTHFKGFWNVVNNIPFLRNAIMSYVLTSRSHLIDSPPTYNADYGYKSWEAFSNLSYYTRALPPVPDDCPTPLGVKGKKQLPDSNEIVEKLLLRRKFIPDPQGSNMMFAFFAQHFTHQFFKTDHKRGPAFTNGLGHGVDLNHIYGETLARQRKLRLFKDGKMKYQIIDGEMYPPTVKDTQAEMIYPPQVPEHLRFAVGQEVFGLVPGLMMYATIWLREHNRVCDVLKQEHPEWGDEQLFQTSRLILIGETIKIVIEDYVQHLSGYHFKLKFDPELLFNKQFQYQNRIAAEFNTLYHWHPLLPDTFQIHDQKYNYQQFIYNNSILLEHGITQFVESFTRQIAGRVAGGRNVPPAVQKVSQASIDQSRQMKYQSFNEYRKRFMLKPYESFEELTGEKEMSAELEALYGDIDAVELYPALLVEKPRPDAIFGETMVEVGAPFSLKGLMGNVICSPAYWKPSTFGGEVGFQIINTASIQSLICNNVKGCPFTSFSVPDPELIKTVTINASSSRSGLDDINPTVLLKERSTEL
Put plainly: Inhibition of human recombinant COX-2 using arachidonic acid as substrate preincubated for 15 mins followed by substrate addition and measured after 2 mins by fluorescence based analysis.

Experiment [9] can be described thus: Antioxidant activity assessed as DPPH radical scavenging activity measured after 30 mins by UV-visible spectrophotometric analysis. The class given is functional.
For experiment [10], the system named is Staphylococcus aureus. Put plainly: Antibacterial activity against vancomycin-intermediate Staphylococcus aureus ATCC 700787 assessed as bacterial growth inhibition incubated for 24 hrs by CLSI based two-fold serial dilution method. The class given is functional.
In another experiment the test system is Nakaseomyces glabratus. Put plainly: Antifungal activity against Candida glabrata ATCC 15126 assessed as reduction in microbial growth incubated for 24 hrs by CLSI based broth micro-dilution method. The class given is functional.
Experiment [11] concerns Staphylococcus aureus. Put plainly: Antibacterial activity against methicillin-resistant Staphylococcus aureus […] assessed as bacterial growth inhibition measured after 24 hrs by CLSI based two-fold serial dilution method. The class given is functional.
For experiment [12], the system named is Staphylococcus aureus. Put plainly: Antibacterial activity against methicillin-sensitive Staphylococcus aureus ATCC 29213 assessed as bacterial growth inhibition measured after 24 hrs by CLSI based two-fold serial dilution method. It counts as functional.
Experiment [13] can be described thus: Antioxidant activity assessed as ABTS radical scavenging activity incubated for 30 mins by UV-visible spectrphotometric analysis. The class given is functional.
Experiment [14] concerns the target T2, Acetylcholinesterase (Homo sapiens, UniProt P22303). Put plainly: Inhibition of human recombinant acetylcholinesterase using acetylthiocholine as substrate by spectrophotometric analysis.
In experiment [15] the target is T2, Acetylcholinesterase. Kind of experiment: Inhibition of AChE (unknown origin).

The structures appear in SMILES notation. pEC50, pIC50: −log10 of the molar value. In brackets after ≈: the same amount, converted by molar mass.

T2 sequence (P22303 whole entry): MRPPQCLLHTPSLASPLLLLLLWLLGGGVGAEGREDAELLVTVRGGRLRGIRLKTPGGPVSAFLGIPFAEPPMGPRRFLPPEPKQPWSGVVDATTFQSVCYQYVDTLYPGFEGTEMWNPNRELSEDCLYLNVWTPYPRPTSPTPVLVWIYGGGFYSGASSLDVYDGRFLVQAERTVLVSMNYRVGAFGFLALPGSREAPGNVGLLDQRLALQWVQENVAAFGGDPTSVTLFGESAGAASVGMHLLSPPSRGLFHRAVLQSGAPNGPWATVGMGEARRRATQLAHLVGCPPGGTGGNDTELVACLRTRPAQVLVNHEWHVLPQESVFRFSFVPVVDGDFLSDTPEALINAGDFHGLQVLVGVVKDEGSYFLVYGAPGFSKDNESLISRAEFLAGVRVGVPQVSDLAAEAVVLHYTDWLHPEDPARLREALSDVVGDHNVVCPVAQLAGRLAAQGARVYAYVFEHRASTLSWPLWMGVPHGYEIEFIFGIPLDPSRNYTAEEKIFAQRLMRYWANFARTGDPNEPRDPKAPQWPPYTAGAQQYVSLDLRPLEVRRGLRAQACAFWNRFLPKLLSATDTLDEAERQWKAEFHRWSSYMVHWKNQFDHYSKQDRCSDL
Chain of Peroxisome proliferator-activated receptor alpha (Homo sapiens) (Q07869 whole entry): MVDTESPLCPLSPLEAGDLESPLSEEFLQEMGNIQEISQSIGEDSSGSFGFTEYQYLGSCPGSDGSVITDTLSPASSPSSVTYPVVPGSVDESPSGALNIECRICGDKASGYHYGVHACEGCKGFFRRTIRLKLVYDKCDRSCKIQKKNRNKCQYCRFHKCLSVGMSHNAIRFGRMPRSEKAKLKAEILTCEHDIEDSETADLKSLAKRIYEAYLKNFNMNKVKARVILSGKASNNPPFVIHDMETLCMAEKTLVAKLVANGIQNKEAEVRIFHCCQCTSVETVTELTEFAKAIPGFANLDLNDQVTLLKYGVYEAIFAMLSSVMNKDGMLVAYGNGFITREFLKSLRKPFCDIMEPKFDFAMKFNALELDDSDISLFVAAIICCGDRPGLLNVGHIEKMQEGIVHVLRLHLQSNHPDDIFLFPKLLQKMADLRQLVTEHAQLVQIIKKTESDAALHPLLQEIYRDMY
Chain of Alpha-1A adrenergic receptor (Homo sapiens) (P35348 whole entry): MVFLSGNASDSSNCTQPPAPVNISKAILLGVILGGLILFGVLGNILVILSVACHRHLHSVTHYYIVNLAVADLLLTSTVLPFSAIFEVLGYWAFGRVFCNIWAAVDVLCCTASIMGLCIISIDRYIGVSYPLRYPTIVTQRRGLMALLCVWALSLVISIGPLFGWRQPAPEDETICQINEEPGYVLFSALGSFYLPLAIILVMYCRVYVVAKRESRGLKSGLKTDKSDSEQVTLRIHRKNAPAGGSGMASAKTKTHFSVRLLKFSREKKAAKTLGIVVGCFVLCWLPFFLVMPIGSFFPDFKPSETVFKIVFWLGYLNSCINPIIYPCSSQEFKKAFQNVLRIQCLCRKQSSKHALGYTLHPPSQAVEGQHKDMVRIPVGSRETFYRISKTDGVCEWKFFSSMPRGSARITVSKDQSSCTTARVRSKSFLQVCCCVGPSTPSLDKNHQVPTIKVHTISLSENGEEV

As for `CC(C)(Oc1ccc(C2CC2(Cl)Cl)cc1)C(=O)O` (stereo not given), the fold change (FC) in [1] stood at 2.2.

`CC(=O)N/C=C/c1ccc(O)c(O)c1`: the Activity with RAW264.7 [2] turned out to be 32.9%.

For the molecule `Oc1cc2c(cc1O)[C@@H](C1=C[C@@]3(O)CC/C=C\CCCCN4CC[C@@H]1[C@]1(C[C@@H]5/C=C\CCCCN5[C@H]13)C4)NCC2`, the pIC50 in the experiment with HeLa is 5.38.

Consider `O=C1c2cc(O)c(O)cc2CCn2cccc21`, for which, in experiment [3], the pEC50 is 4.84.

For the molecule `Oc1cc2c(cc1O)[C@@H](Cc1ccccc1)NCC2`, the results for the inhibition in experiment [4] and in experiment [5] were 80.3% and 6.1%, respectively.

As to `O=C(O)[C@@H]1Cc2cc(O)c(O[C@@H]3O[C@H](CO)[C@@H](O)[C@H](O)[C@H]3O)cc2N1C(=O)/C=C/c1ccc(O[C@@H]2O[C@H](CO)[C@@H](O)[C@H](O)[C@H]2O)cc1`, the pIC50 in the experiment on RAW264.7 [6] was 4.17. The negative-log EC50 (pEC50) in experiment [7] was 4.42.

As to `Oc1ccc([C@H]2NCCc3cc(O)c(O)cc32)cc1O`, the pIC50 is 6.80 in the experiment on Leishmania amazonensis and 6.64 with Trypanosoma cruzi.

On to `CC(=O)NCCc1cc(O)c(O)cc1C(=O)c1ccc(O)c(O)c1`, for which the pIC50 in experiment [8] was 6.11.

As for `Oc1cc2c(cc1O)[C@H](C1=C[C@@]3(O)CC/C=C\CCCCN4CC[C@@H]1[C@]1(C[C@@H]5/C=C\CCCCN5[C@H]13)C4)NCC2`, in the experiment with HeLa, the pIC50 is 5.24.

As to `O=C1N[C@@H](Cc2ccc(O)c(O)c2)C(=O)N2CCC[C@@H]12`, the 50% effective concentration (EC50) in experiment [9] came to 12.98 µg/mL (≈ 47 µM); in experiment [13], 1.71 µg/mL (≈ 6.19 µM). The MIC in the experiment with Staphylococcus aureus [10] amounted to 256 µg/mL (≈ 927 µM); in the experiment on Nakaseomyces glabratus, 128 µg/mL; in the experiment on Staphylococcus aureus [11], 256 µg/mL (≈ 927 µM); in the experiment with Staphylococcus aureus [12] it was 256 µg/mL (≈ 927 µM).

As for `O=C1NCCc2c1ccc(O)c2O`, the pEC50 at Acetylcholinesterase [14] was 4.18.

For the molecule `COc1cc(/C=C/C(=O)NCCc2ccc(O)c(O)c2)ccc1O` [N-TRANS-FERULOYLDOPAMINE], the pIC50 on Acetylcholinesterase [15] was 5.07.
